8 compounds from patent US9670227B2, “Thienopyrimidine derivatives, a process for their preparation and pharmaceutical compositions containing them” (LES LABORATOIRES SERVIER, priority 2013, dated 2017) can be followed below.

One assay has as its target Mcl-1 protein (UniProtKB primary accession number: Q07820) (Homo sapiens, UniProt Q07820). Briefly: Inhibition of Mcl-1 by fluorescence polarisation, Method 1. The class given is binding. To be noted: fluorescence polarisation; Method 1, or Method 2; read-out: IC50 (M) Mcl-1 FP. The procedure, abridged: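 Compounds were tested as 11-point serial dilutions at 5% final DMSO against 5 nM Mcl-1 with 1 nM fluorescein-labelled ligand in 10 mM HEPES, 150 mM NaCl, 0.05% Tween 20, pH 7.4. Relative binding potency was read by fluorescence polarisation.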
For orientation: Fluorescence polarisation rises when a labelled molecule tumbles more slowly, as on binding a larger partner.

The test system of assay [1] is H929 multiple myeloma tumour line. Briefly: In vitro cytotoxicity, Microculture Tetrazolium Assay. The class given is cell-based. To be noted: Homo sapiens, NCI-H929, 48 h, H929 cells, 48 hours exposure, MTT; read-out: IC50 (μM) MTT H929. The protocol:
The cytotoxicity studies were carried out on the H929 multiple myeloma tumour line.
The cells are distributed onto microplates and exposed to the test compounds for 48 hours.

Chain of Mcl-1 protein (Q07820 whole entry): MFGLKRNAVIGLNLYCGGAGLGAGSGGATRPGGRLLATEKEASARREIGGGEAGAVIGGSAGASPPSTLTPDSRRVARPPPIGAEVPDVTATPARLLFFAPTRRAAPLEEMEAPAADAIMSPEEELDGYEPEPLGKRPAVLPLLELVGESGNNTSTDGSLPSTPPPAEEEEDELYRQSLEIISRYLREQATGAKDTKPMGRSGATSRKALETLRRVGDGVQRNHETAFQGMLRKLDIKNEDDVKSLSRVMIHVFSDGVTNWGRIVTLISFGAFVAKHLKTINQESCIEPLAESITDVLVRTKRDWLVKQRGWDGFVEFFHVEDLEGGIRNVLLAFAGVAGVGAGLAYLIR

Usually IC50 stands for the concentration needed to halve the response being measured. Turning to `COc1ccc(-c2sc3ncnc(OC(Cc4ccccc4OC)C(=O)O)c3c2-c2ccc(OCCN3CCN(C)CC3)c(Cl)c2C)o1` [Example 544, (2R)-2-{[(5Sa)-5-{3-chloro-2-methyl-4-[2-(4-methylpiperazin-1-yl)ethoxy]phenyl}-6-(5-methoxyfuran-2-yl)thieno[2,3-d]pyrimidin-4-yl]oxy}-3-(2-methoxyphenyl)propanoic acid], the 50% inhibitory concentration (IC50) at Mcl-1 protein was determined as 1.4e-08 M; in assay [1], 0.274 µM.
The matching figures for `COc1ccccc1CC(Oc1ncnc2sc(-c3cccc([N+](=O)[O-])c3)c(-c3ccc(OCCN4CCN(C)CC4)c(Cl)c3C)c12)C(=O)O` [Example 545, (2R)-2-{[(5Sa)-5-{3-chloro-2-methyl-4-[2-(4-methylpiperazin-1-yl)ethoxy]phenyl}-6-(3-nitrophenyl)thieno[2,3-d]pyrimidin-4-yl]oxy}-3-(2-methoxyphenyl)propanoic acid]: 3.9e-08 M and 1.1 µM.
For `COc1ccccc1CC(Oc1ncnc2sc(-c3cccc(C)c3)c(-c3ccc(OCCN4CCN(C)CC4)c(Cl)c3C)c12)C(=O)O` [Example 546, (2R)-2-{[(5Sa)-5-{3-chloro-2-methyl-4-[2-(4-methylpiperazin-1-yl)ethoxy]phenyl}-6-(3-methylphenyl)thieno[2,3-d]pyrimidin-4-yl]oxy}-3-(2-methoxyphenyl)propanoic acid], the IC50 turned out to be 1.7e-08 M on Mcl-1 protein and 0.416 µM in assay [1].
The matching figures for `C#Cc1cccc(-c2sc3ncnc(OC(Cc4ccccc4OC)C(=O)O)c3c2-c2ccc(OCCN3CCN(C)CC3)c(Cl)c2C)c1` [Example 547, (2R)-2-{[(5Sa)-5-{3-chloro-2-methyl-4-[2-(4-methylpiperazin-1-yl)ethoxy]phenyl}-6-(3-ethynylphenyl)thieno[2,3-d]pyrimidin-4-yl]oxy}-3-(2-methoxyphenyl)propanoic acid]: 3.3e-08 M and 0.475 µM.
In the case of `COc1ccccc1CC(Oc1ncnc2sc(-c3cccc(C#N)c3)c(-c3ccc(OCCN4CCN(C)CC4)c(Cl)c3C)c12)C(=O)O` [Example 548, (2R)-2-{[(5Sa)-5-{3-chloro-2-methyl-4-[2-(4-methylpiperazin-1-yl)ethoxy]phenyl}-6-(3-cyanophenyl)thieno[2,3-d]pyrimidin-4-yl]oxy}-3-(2-methoxyphenyl)propanoic acid], the IC50 came out at 1.8e-08 M on Mcl-1 protein and 0.497 µM in assay [1].
For `COc1ccccc1CC(Oc1ncnc2sc(-c3cccc(C(F)(F)F)c3)c(-c3ccc(OCCN4CCN(C)CC4)c(Cl)c3C)c12)C(=O)O` [Example 549, (2R)-2-[((5Sa)-5-{3-chloro-2-methyl-4-[2-(4-methylpiperazin-1-yl)ethoxy]phenyl}-6-[3-(trifluoromethyl)phenyl]thieno[2,3-d]pyrimidin-4-yl)oxy]-3-(2-methoxyphenyl)propanoic acid], in that order: 1.3e-07 M and 1.5 µM.
Take `COc1ccccc1CC(Oc1ncnc2sc(-c3cccc(N(C)C)c3)c(-c3ccc(OCCN4CCN(C)CC4)c(Cl)c3C)c12)C(=O)O` [Example 552, (2R)-2-[((5Sa)-5-{3-chloro-2-methyl-4-[2-(4-methylpiperazin-1-yl)ethoxy]phenyl}-6-[3-(dimethylamino)phenyl]thieno[2,3-d]pyrimidin-4-yl)oxy]-3-(2-methoxyphenyl)propanoic acid]: the IC50 at Mcl-1 protein was 4.1e-08 M; in assay [1], 0.784 µM.
For `COc1ccccc1CC(Oc1ncnc2sc(-c3cccc(O)c3)c(-c3ccc(OCCN4CCN(C)CC4)c(Cl)c3C)c12)C(=O)O` [Example 553, (2R)-2-{[(5Sa)-5-{3-chloro-2-methyl-4-[2-(4-methylpiperazin-1-yl)ethoxy]phenyl}-6-(3-hydroxyphenyl)thieno[2,3-d]pyrimidin-4-yl]oxy}-3-(2-methoxyphenyl)propanoic acid], in that order: 1.1e-08 M and 0.585 µM.
